Reference: publication PMC6120739 (ACS Omega, 2018)
“Also recorded” adds a separate entry of the source.

Experiments:
UWB1.289 cells = assay: Cell viability assay; conditions: for EC50: UWB1289, read-out: UWB1.289 EC50; for cytotoxicity in BRCA1-null model, result in words: compared with AZD2461 and olaparib
PARP-1 = PARP-1 (Homo sapiens, UniProt P09874); assay: PARP-1 radioligand binding; conditions: PARP-1 IC50, OVCAR8 cells, [125I]KX1 radioligand, ± SEM, n = 3
UWB1.289 + BRCA1 cells = assay: Cell viability assay; format: cell-based; conditions: for EC50: UWB1289, read-out: UWB1.289 + BRCA1 EC50; for antiproliferative effect in BRCA1-restored UWB1.289, result in words: in contrast to olaparib and AZD2461
recombinant human P-gp = recombinant human P-gp (Homo sapiens, UniProt P08183); assay: Pgp-Glo assay; conditions: 20 µM compound, 1 hr at 37°C, normalized to Na3VO4
Sequence of recombinant human P-gp (P08183 whole entry): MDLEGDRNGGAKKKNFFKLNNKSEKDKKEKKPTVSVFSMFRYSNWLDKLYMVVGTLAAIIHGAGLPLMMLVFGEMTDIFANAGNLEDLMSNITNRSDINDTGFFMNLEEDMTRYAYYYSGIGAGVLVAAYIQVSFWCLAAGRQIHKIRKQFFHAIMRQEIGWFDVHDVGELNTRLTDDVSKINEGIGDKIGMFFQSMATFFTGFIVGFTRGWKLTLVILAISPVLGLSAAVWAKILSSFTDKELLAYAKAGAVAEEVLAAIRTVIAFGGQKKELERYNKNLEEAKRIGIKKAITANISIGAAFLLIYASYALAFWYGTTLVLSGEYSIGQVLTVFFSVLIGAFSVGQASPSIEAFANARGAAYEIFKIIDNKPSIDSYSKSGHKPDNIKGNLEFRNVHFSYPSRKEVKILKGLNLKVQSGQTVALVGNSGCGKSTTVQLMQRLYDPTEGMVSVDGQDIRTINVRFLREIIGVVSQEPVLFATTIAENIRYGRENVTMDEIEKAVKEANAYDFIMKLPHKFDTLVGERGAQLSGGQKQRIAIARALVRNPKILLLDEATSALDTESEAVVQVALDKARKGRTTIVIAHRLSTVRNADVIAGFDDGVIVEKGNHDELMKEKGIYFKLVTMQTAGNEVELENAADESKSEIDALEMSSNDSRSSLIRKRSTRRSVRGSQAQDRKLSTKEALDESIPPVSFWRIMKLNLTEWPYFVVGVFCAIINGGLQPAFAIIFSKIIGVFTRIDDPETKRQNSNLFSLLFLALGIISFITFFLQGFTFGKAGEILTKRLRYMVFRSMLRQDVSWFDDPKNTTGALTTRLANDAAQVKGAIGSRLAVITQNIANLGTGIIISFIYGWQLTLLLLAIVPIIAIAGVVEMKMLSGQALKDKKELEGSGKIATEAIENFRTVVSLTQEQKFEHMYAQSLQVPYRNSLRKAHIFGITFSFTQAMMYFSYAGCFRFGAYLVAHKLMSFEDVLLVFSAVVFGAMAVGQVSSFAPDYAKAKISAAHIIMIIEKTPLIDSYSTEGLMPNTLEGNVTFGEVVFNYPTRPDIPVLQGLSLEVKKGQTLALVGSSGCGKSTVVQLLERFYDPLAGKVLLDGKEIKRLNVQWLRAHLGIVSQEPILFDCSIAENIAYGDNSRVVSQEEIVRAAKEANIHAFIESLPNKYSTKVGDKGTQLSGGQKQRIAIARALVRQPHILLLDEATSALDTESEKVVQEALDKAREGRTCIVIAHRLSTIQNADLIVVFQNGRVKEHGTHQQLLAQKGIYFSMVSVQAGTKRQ

Sequence of PARP-1 (P09874 whole entry): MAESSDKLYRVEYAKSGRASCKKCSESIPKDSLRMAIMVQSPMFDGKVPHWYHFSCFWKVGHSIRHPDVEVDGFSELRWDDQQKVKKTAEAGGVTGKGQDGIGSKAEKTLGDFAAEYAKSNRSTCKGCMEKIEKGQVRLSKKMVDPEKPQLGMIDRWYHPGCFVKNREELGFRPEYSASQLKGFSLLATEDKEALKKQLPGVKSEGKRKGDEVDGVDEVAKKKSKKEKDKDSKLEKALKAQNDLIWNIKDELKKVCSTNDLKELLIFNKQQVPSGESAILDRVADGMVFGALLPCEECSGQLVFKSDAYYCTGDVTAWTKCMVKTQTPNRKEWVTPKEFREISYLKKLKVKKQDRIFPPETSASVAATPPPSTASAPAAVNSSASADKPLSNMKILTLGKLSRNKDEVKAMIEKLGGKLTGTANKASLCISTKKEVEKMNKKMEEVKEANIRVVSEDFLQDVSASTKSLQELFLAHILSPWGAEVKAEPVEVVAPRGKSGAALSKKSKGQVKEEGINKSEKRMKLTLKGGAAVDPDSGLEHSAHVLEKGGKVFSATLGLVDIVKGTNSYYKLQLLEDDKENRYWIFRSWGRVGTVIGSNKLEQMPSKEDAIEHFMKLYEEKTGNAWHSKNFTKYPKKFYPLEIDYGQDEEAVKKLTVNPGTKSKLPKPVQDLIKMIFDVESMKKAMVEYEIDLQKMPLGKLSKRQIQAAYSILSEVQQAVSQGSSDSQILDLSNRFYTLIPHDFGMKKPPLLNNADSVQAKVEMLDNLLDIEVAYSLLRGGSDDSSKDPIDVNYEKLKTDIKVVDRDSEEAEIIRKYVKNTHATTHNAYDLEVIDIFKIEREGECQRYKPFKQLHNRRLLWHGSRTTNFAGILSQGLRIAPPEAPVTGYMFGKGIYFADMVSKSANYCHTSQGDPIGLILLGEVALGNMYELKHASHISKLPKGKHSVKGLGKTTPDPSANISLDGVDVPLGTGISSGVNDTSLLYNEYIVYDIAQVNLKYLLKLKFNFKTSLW

Row | IC50 (PARP-1) [nM] | SMILES | EC50 (UWB1.289 cells) [nM] | cytotoxicity in BRCA1-null model, result in words (UWB1.289 cells) | EC50 (UWB1.289 + BRCA1 cells) [nM] | antiproliferative effect in BRCA1-restored UWB1.289, result in words (UWB1.289 + BRCA1 cells) | P-gp ATPase interaction (luminescence), result in words (recombinant human P-gp)
1 | < 10 | COC1CN(C(=O)c2cc(Cc3n[nH]c(=O)c4ccccc34)ccc2F)C1 [Compound 2] | 2120 ± 200 | less cytotoxic than both AZD2461 and olaparib | 13400 ± 700 | poor antiproliferative effects | increase in luminescence
2 | < 10 | COC1CCN(C(=O)c2cc(Cc3n[nH]c(=O)c4ccccc34)ccc2F)C1 (stereo not drawn) [Compound 3] | 1500 ± 400 | less cytotoxic than both AZD2461 and olaparib | 8580 ± 1100 | poor antiproliferative effects | increase in luminescence; also recorded: weakest activators of P-gp ATPase; also recorded: least activating agents of P-gp ATPase
3 | – | COC1CCN(C(=O)c2cc(Cc3n[nH]c(=O)c4ccccc34)ccc2F)CC1 [Compound 4, AZD2461, reference compound] | 890 ± 700 | – | 2280 ± 300 | – | –
4 | < 10 | COC1CCCN(C(=O)c2cc(Cc3n[nH]c(=O)c4ccccc34)ccc2F)CC1 (stereo not drawn) [Compound 5] | 2840 ± 1400 | less cytotoxic than both AZD2461 and olaparib | 3490 ± 200 | poor antiproliferative effects | increase in luminescence; also recorded: weakest activators of P-gp ATPase
5 | – | COC1CC(NC(=O)c2cc(Cc3n[nH]c(=O)c4ccccc34)ccc2F)C1 (stereo not drawn) [Compound 6] | 10100 ± 1500 | – | 6620 ± 4300 | – | only P-gp substrate in this study
6 | 20.8 ± 1.1 | CO[C@H]1C[C@H](NC(=O)c2cc(Cc3n[nH]c(=O)c4ccccc34)ccc2F)C1 [Compound 7] | 1940 ± 1100 | – | 2810 ± 1400 | – | –
7 | 107 ± 1.1 | CO[C@H]1C[C@@H](NC(=O)c2cc(Cc3n[nH]c(=O)c4ccccc34)ccc2F)C1 [Compound 8] | 4350 ± 1700 | – | 13900 ± 1100 | – | –
8 | 49.5 ± 1.1 | COC1CCC(NC(=O)c2cc(Cc3n[nH]c(=O)c4ccccc34)ccc2F)C1 (stereo not drawn) [Compound 9] | 1320 ± 500 | – | 9310 ± 1000 | – | poor activator of P-pg ATPase; also recorded: least activating agents of P-gp ATPase
9 | 226.3 ± 1.1 | COC1CCC(NC(=O)c2cc(Cc3n[nH]c(=O)c4ccccc34)ccc2F)CC1 (stereo not drawn) [Compound 10] | 2420 ± 900 | – | 6160 ± 1300 | – | –
10 | – | O=C(c1cc(Cc2n[nH]c(=O)c3ccccc23)ccc1F)N1CCN(C(=O)C2CC2)CC1 [olaparib, reference compound] | 900 ± 500 | – | 1970 ± 400 | – | acts more of a P-gp ATPase activator, than 4
